Source: patent publication US11938121B2, “Treatment of infections and biofilm formation using a cellulose synthase inhibitor” (Purdue Research Foundation, priority 2020, dated 2024)

Tests used:
Arabidopsis Col-0 [1] = experiment: Crystalline cellulose content measurement of cell wall; type: in vivo, Arabidopsis thaliana; settings: 1 μM, 7-day-old dark-grown seedlings
Procedure: Arabidopsis Col-0 seeds were sown on growth medium supplemented with 0.1% DMSO, 1 μM ES20, or different concentrations of ES20 analogs. […] Cellulose extraction and measurement were performed as previously described (Huang et al., 2020).

rice (Oryza sativa) = experiment: Rice seedling root growth; type: in vivo; settings: 20 μM, 6-day-old seedlings
Excerpt: (§1) ES20 has broad spectrum inhibitory effect on the growth of both dicotyledonous and monocotyledonous plants (Huang and Zhang, Plant Signal Behav. 2020, 15, 1780039). We tested whether ES20-1 has stronger inhibitory effect on the growth of monocotyledon plants than ES20. We grew rice (Oryza sativa) and maize (Zea mays) seedlings on the same concentrations of ES20 and ES20-1 and compared their effects on growth.

maize (Zea mays) = experiment: Maize seedling root growth; type: in vivo; settings: 20 μM, 6-day-old seedlings
Excerpt: as §1

[2] = target: T1, GFP-CESA6c (central cytosolic domain of AtCESA6) (Arabidopsis thaliana, UniProt Q94JQ6); experiment: MST assay with GFP-CESA6c; type: binding; settings: 100 nM GFP-CESA6c
T1 construct: made in house; host or cells: E. coli
Excerpt: (§2) To obtain the central cytosolic domain of AtCESA6 for the MST assay, we inserted the GFP coding sequence into the SacI and PstI restriction enzyme sites of the pRSF-Duet-1 vector (Huang et al., 2020). The GFP coding sequence was amplified from the pUBN-GFP-DEST vector. The sequence encoding the central cytosolic domain of CESA6 (CESA6c) was amplified from Col-0 cDNA and fused with GFP at the C-terminus. CESA6c construct was used as a template for creating CESA6c^P595S construct by site-directed mutagenesis. Protein purification was performed as previously described (Huang et al., 2020).
(§3) MST assays were carried out using a Monolith NT.115 (NanoTemper) machine at the Chemical Genomics Facility at Purdue University. […] The ES20-1 was dissolved in DMSO, and the final concentration of DMSO was 5% (vol/vol). MST standard capillaries were used to load the samples into the MST instrument. Triplicate reactions were performed for each test. The MST data were processed using MO. Affinity Analysis Version 2.3 software.

GFP-CESA6c^P595S = target: T2, GFP-CESA6c^P595S (Arabidopsis thaliana, UniProt Q94JQ6, P595S); experiment: MST assay with GFP-CESA6c^P595S; type: binding
T2 construct: We purified AtCESA6 central cytoplasmic domain carrying missense mutation P595S (CESA6c^P595S); made in house; host or cells: E. coli (inferred from the wild-type CESA6c construct that served as template)
Excerpt: as §2, §3

Komagataeibacter xylinus [3] = experiment: K. xylinus cell growth on HS solid medium; type: cell-based; settings: 6 days
Excerpt: Based on primary protein sequence analysis and a comparison of three-dimensional protein structures, the catalytic sites of cellulose synthases are highly conserved across kingdoms (Huang et al., 2020, Purushotham et al., 2020). The amino acids that are directly involved in glucan chain initiation, elongation, and translocation are conserved between plant and bacterial cellulose synthases (Huang et al., 2020). Based on the conservation of catalytic sites in cellulose synthases, we hypothesized that ES20 and ES20-1 would inhibit bacterial cellulose biosynthesis as well. We chose to test the effects of ES20 and ES20-1 on cell growth and cellulose production in Komagataeibacter xylinus (K. xylinus, previously known as Gluconacetobacter xylinus) because this bacterium produces abundant cellulose. We first tested whether ES20 and ES20-1 affect K. xylinus cell growth. We grew K. xylinus cells in liquid […] (HS) medium and then we inoculated 20 μL of series diluted culture to HS solid growth medium supplemented with DMSO (0.1%) or different concentrations of ES20 and ES20-1. […] We found ES20 and ES20-1 affect K. xylinus colony morphology as well. […] Wrinkles radiating structure is often observed in cellulose-producing bacteria strains and this structure is often affected when cellulose biosynthesis is disrupted.
Komagataeibacter xylinus (previously named Gluconacetobacter xylinus) ATCC strain 700178 was obtained from ATCC (Manassas, Va., USA) to evaluate cellulose production. HS (Hestrin and Schramm) medium was used for culture; HS liquid medium contains 2.0% glucose (w/v), 0.5% yeast extract (w/v), 0.5% peptone (w/v), 0.27% Na2HPO4 (w/v), and 0.15% citric acid (w/v), pH 5.0, and HS solid medium was solidified with 1.8% agar (w/v). To prepare the initial inoculation source, a single K. xylinus colony grown on HS solid medium was transferred to HS liquid medium and cultured at 26° C. for 5 days under static conditions. We used cells from the bottom of the liquid culture as the initial inoculation source to avoid biofilm aggregates at the air-liquid interface. To test the effect of ES20 and ES20-1 on the bacteria growth, initial inoculation source was series diluted and 20 μL culture from each diluted solution was dropped on HS solid medium supplemented with DMSO (0.1%) or different concentrations of ES20 and ES20-1 and cultured at 26° C. for 6 days after the dropped culture was completely dry. To test the effects of ES20 and ES20-1 on cellulose production, the prepared inoculation source was inoculated at a dilution ratio of 1:1000 dilution in HS liquid medium supplemented with 0.1% DMSO or 20 μM of ES20 or ES20-1. Static cultivation was carried out in a 26° C. incubator, and agitated cultivation was carried out at 26° C. with shaking at 220 rpm. […]

Komagataeibacter xylinus [4] = experiment: K. xylinus cellulose production in liquid culture; type: cell-based; settings: 20 μM
Excerpt: We next grew K. xylinus cells in growth medium supplemented with DMSO, ES20, or ES20-1 under agitation. […] We also grew K. xylinus in liquid medium supplemented with DMSO, ES20, or ES20-1 under static cultivation conditions. Without agitation, pellicles containing cellulose often form at the air-liquid interface. […] To quantify the effects of ES20 and ES20-1 on cellulose production, we harvested the pellicles from these cultures and isolated cellulose from the pellicles.
Komagataeibacter xylinus (previously named Gluconacetobacter xylinus) ATCC strain 700178 was obtained from ATCC (Manassas, Va., USA) to evaluate cellulose production. HS (Hestrin and Schramm) medium was used for culture; HS liquid medium contains 2.0% glucose (w/v), 0.5% yeast extract (w/v), 0.5% peptone (w/v), 0.27% Na2HPO4 (w/v), and 0.15% citric acid (w/v), pH 5.0, and HS solid medium was solidified with 1.8% agar (w/v). To prepare the initial inoculation source, a single K. xylinus colony grown on HS solid medium was transferred to HS liquid medium and cultured at 26° C. for 5 days under static conditions. We used cells from the bottom of the liquid culture as the initial inoculation source to avoid biofilm aggregates at the air-liquid interface. To test the effect of ES20 and ES20-1 on the bacteria growth, initial inoculation source was series diluted and 20 μL culture from each diluted solution was dropped on HS solid medium supplemented with DMSO (0.1%) or different concentrations of ES20 and ES20-1 and cultured at 26° C. for 6 days after the dropped culture was completely dry. To test the effects of ES20 and ES20-1 on cellulose production, the prepared inoculation source was inoculated at a dilution ratio of 1:1000 dilution in HS liquid medium supplemented with 0.1% DMSO or 20 μM of ES20 or ES20-1. Static cultivation was carried out in a 26° C. incubator, and agitated cultivation was carried out at 26° C. with shaking at 220 rpm. To isolate cellulose from pellicles, the pellicles were removed from liquid culture, washed several times with deionized water, and soaked in 0.1 M NaOH at 80° C. for 2 h. The pellicles were washed several times with deionized water to completely remove the alkali. The purified cellulose was dried at 60° C. for ˜1 day until a constant dry mass was reached.

[5] = system: Rhodobacter sphaeroidesin; experiment: Rhodobacter sphaeroidesin growth in overnight culture; type: cell-based, Rhodobacter sphaeroides; settings: vs DMSO control media
Excerpt: To test the effect of Endosidin20/Cellulosin in bacterial cell growth, we first grew Rhodobacter sphaeroidesin in the presence of Ensodin20/Cellulosin.

Arabidopsis Col-0 [6] = settings: 1 μM; cited from earlier work
[7] = system: AtCESA6 (cesa6 alleles es20r1-es20r15); settings: Huang et al., 2020; cited from earlier work
[8] = system: AtCESA6 carrying missense mutations in prc1-1; settings: Huang et al., 2020; cited from earlier work
[9] = target: T3, YFP-AtCESA6 cellulose synthase complexes (CSCs) in root epidermal cells (Arabidopsis thaliana, UniProt Q94JQ6); settings: Huang et al., 2020; cited from earlier work
T3 construct: expressed in transfected cells; host or cells: transgenic Arabidopsis thaliana YFP-AtCESA6 seedlings (total protein extract for DARTS; root epidermal cells for imaging)

[10] = 5 days static cultivation, vs DMSO

## COc1ccc(C(=O)NC(=S)NNC(=O)c2ccccc2C)cc1 [ES20, Endosidin20]
Arabidopsis Col-0 [1]; mean±SD, n=3
  crystalline cellulose content in hypocotyl cell wall: 109 ± 4 µg/mg
Arabidopsis Col-0 [1]; vs DMSO
  reduction of crystalline cellulose levels in the hypocotyl: approximately 35%
Rice (Oryza sativa)
  rice root growth inhibition: could inhibit the root growth
Maize (Zea mays)
  maize root growth inhibition: could inhibit the root growth
[2]
  interaction with CESA6c: interacted
GFP-CESA6c^P595S
  interaction with CESA6c^P595S: interacts
Komagataeibacter xylinus [3]; 20 μM and 50 μM
  K. xylinus cell growth inhibition: inhibit K. xylinus cell growth at both 20 μM and 50 μM concentrations
Komagataeibacter xylinus [3]; 20 μM
  K. xylinus colony morphology (wrinkles radiating structures): the wrinkles are not obvious
Komagataeibacter xylinus [4]; 5 days agitated cultivation, vs DMSO
  size of cellulose clusters: smaller
Komagataeibacter xylinus [4]; 5 days static cultivation, mean±SD, n=9
  dry mass of cellulose from pellicles: 268 ± 139 mg/L
Komagataeibacter xylinus [4]; [10]
  decrease of dry mass of cellulose from pellicles: ~45%
  pellicle thickness: pellicles in cultures containing DMSO are thicker
[5]
  growth of Rhodobacter sphaeroidesin: significantly slower
Arabidopsis Col-0 [6]
  inhibition of Arabidopsis thaliana root growth: more than 50%
[7]
  sensitivity of es20r1-es20r15 mutants to ES20: reduced sensitivity
[8]
  sensitivity of transgenic plants with AtCESA6 catalytic site mutations to ES20: also had reduced sensitivity
[9]
  effect on CSC motility, density and localization: reduces the motility and density of CSCs at the PM and induces their accumulation at the SmaCCs and Golgi
  effect on delivery rate of CSCs to PM: reduced the delivery rate of CSCs to PM
